{"source": "patent US20110305654A1", "about": "“ANHYDROUS PETROLEUM JELLY/ELASTOMER-FREE DEPIGMENTING COMPOSITIONS COMPRISING A SOLUBILIZED PHENOLIC COMPOUND” (Galderma Research & Development, priority 2008, published 2011)", "origin": "cited, not measured here", "note": "Like-named read-outs stand apart in the source and are kept apart here.", "data": [{"smiles": "Oc1ccc(O)cc1", "note": "[hydroquinone]", "values": [{"measurement": "Irritation", "setting": "10% concentrations", "result": "relatively high"}, {"measurement": "Irritation", "setting": "concentration of 2%", "result": "virtually nonexistent"}, {"measurement": "Irritation", "setting": "preparations with a 5% dose", "result": "reduces greatly"}]}]}
